Data published in patent US20080063628A1, “METHODS TO PROMOTE CELL DIFFERENTIATION” (priority 2006, published 2008).

Assays:
[1] = tested on: late passage pancreatic-derived stromal cells; test: Chronic trichostatin A treatment, gene expression by RT-PCR (Example 5); assay type: cell-based, human
Experimental: Pancreatic-derived stromal cells were obtained according to the methods described in Example 13. Cells were seeded into a 24-well tissue culture plate at a density of 5000/cm^2 and cultured in DMEM with 10% FBS under standard cell culture conditions until confluent. After the cells reached confluency, sample wells were treated with either 1.25 μM or 2.5 μM trichostatin A diluted in DMSO and medium; control wells received DMSO at an equivalent concentration. At 24 hour intervals over the three day culture period, cultures underwent a complete medium change, and a fresh dilution of trichostatin A or DMSO was added as appropriate. RNA samples were obtained from treated cultures daily after the initial addition of trichostatin A or DMSO. Culture medium was removed, cells were washed with PBS, and RLT lysis buffer with β-mercaptoethanol (Qiagen) was added. RNA was purified using the RNeasy Mini Kit (Qiagen), and RNA quantity and quality was determined using a spectrophotometer. cDNA was made using the iScript cDNA synthesis kit (BioRad).
Expression levels of Sox17, HNF-3 beta, Pdx-1, insulin, and glucagon were determined by RT-PCR. Samples of 20 ng cDNA were used in each reaction, which was performed on the Applied Biosystems 7500, according to the methods described in Example 15. Data were analyzed using the accompanying software. Human pancreas cDNA was included as a control. Results were normalized against GAPDH expression levels.
(§1) Real-time PCR amplifcation and quantitative analysis. Unless otherwise stated, all reagents were purchased from Applied Biosystems. Real-time PCR reactions were performed using the ABI PRISM™ 7500 Sequence Detection System. TAQMAN™ FAST UNIVERSAL PCR MASTER MIX™ (ABI, CA) was used with 20 ng of reverse transcribed RNA in a total reaction volume of 20 μl. Each cDNA sample was run in duplicate to allow correction of pipetting errors. Primers and FAM-labeled TAQMAN™ probes were used at concentrations of 200 nM. The level of expression for each target gene was normalized using the pre-developed Applied Biosystem's human glyceraldehyde-3-phosphate dehydrogenase (GAPDH) endogenous control kit. Primers and probes were designed using either ABI PRISM PRIMER EXPRESS™ software or a pre-developed ABI gene analysis kit. For each gene, either one of the primers or the probe were designed to be exon-boundary spanning. This eliminated the possibility of the primers/probe binding to any genomic DNA present. The primer and probe sets are listed as follows: Pdx-1 (Hs00426216), Insulin (Hs00355773), glucagon (Hs00174967), and FoxA2 (HNF 3-beta) (Hs00232764). The remaining primers were designed using the PRIMERS program (ABI, CA). After an initial 95° C. incubation for 20 sec, samples were cycled 40 times in two stages: a denaturation step at 95° C. for 3 sec, followed by an annealing/extension step at 60° C. for 30 sec.
(§2) For each primer/probe set, a cycle time value was determined as the cycle number at which the fluorescence intensity of the PCR reaction reached a specific value in the middle of the exponential region of amplification. An increase in expression of a gene corresponded to a decrease in the number of cycles required for the fluorescence intensity to reach this value.

[2] = tested on: Neonatal fibroblasts (Hs27); test: Trichostatin A 48 h treatment, gene expression by Real-Time PCR (Example 1); assay type: cell-based, human
Experimental: Neonatal fibroblasts, also designated Hs27, were derived from human foreskins and obtained from the American Type Culture Collection (ATCC). Panc-1 cells are a transformed cell line derived from a pancreatic epitheloid carcinoma of ductal origin, also obtained from ATCC.
Fibroblasts or Panc-1 cells were seeded into a 6-well tissue culture plate at a density of 50,000 cells/cm^2. Both cell types were cultured in medium containing 10% FBS and DMEM under standard cell culture conditions (37° C., 5% CO2). After reaching confluence (2-3 days), trichostatin A diluted in dimethyl sulfoxide (DMSO) and medium was added at either 2.5 μM or 5 μM to the cultures. Parallel cultures were treated with an equivalent concentration of DMSO as a vehicle control.
RNA samples were obtained from the treated cultures 48 hours after the addition of trichostatin A or DMSO. The culture medium was removed, the cells were washed with phosphate buffered saline (PBS), and RLT Lysis buffer containing β-mercaptoethanol (Qiagen) was added. The samples were homogenized using Qiashredder columns (Qiagen), and RNA was purified using the RNeasy Mini Kit (Qiagen). RNA quantity and quality was determined using a spectrophotometer, and cDNA was made using the iScript cDNA synthesis kit (BioRad).
The expression levels of Sox17, HNF-3 beta, Pdx-1, insulin, and glucagon were determined by Real-Time PCR (RT-PCR), as described in Example 15. Samples of 20 ng cDNA were used in each reaction. RT-PCR reactions were performed on the Applied Biosystems 7500, and data was analyzed using the accompanying software. Human pancreas cDNA was included as a positive control. Results were normalized against GAPDH expression levels.
as §1, §2

[3] = 1.25 μM renewed daily, 24 hours
[4] = 1.25 μM renewed daily, 48 hours
[5] = 1.25 μM renewed daily, 72 hours

In the case of `CC(/C=C/C(=O)NO)=C\[C@@H](C)C(=O)c1ccc(N(C)C)cc1` [trichostatin A], the HNF-3 beta gene expression [1, 3] is reported as “+++ (detectable at less than 35 cycles by RT-PCR with std error less than 0.9)”, the Insulin gene expression [1, 3] is reported as “nd (not detectable at >40 cycles by RT-PCR)” and the PDX-1 gene expression [1, 3] is reported as “+ (detectable between 35 and 40 cycles by RT-PCR)”. For the same molecule, the Sox17 gene expression [1, 3] was “+++ (detectable at less than 35 cycles by RT-PCR with std error less than 0.9)”, the glucagon gene expression [1, 3] was “+ (detectable between 35 and 40 cycles by RT-PCR)” and the HNF-3b gene expression [1, 4] was “++ (detectable at less than 35 cycles by RT-PCR with std error greater than 0.9)”. The Insulin gene expression [1, 4] was “nd (not detectable at >40 cycles by RT-PCR)”, the PDX-1 gene expression [1, 4] was “+++ (detectable at less than 35 cycles by RT-PCR with std error less than 0.9)” and the Sox17 gene expression [1, 4] was “+++ (detectable at less than 35 cycles by RT-PCR with std error less than 0.9)”. The glucagon gene expression [1, 4] was “+ (detectable between 35 and 40 cycles by RT-PCR)”, the HNF-3b gene expression [1, 5] was “+++ (detectable at less than 35 cycles by RT-PCR with std error less than 0.9)” and the Insulin gene expression [1, 5] was “nd (not detectable at >40 cycles by RT-PCR)”. The PDX-1 gene expression [1, 5] was “+++ (detectable at less than 35 cycles by RT-PCR with std error less than 0.9)”, the Sox17 gene expression [1, 5] was “+++ (detectable at less than 35 cycles by RT-PCR with std error less than 0.9)” and the glucagon gene expression [1, 5] was “+ (detectable between 35 and 40 cycles by RT-PCR)”. For the same molecule, the HNF-3 beta gene expression ([1]; 2.5 μM renewed daily, 24 hours) was “+ (detectable between 35 and 40 cycles by RT-PCR)”, the Insulin gene expression ([1]; 2.5 μM renewed daily, 24 hours) was “nd (not detectable at >40 cycles by RT-PCR)” and the PDX-1 gene expression ([1]; 2.5 μM renewed daily, 24 hours) was “+++ (detectable at less than 35 cycles by RT-PCR with std error less than 0.9)”. The Sox17 gene expression ([1]; 2.5 μM renewed daily, 24 hours) was “+++ (detectable at less than 35 cycles by RT-PCR with std error less than 0.9)”, the glucagon gene expression ([1]; 2.5 μM renewed daily, 24 hours) was “nd (not detectable at >40 cycles by RT-PCR)” and the HNF-3b gene expression ([1]; 2.5 μM renewed daily, 48 hours) was “+ (detectable between 35 and 40 cycles by RT-PCR)”. The Insulin gene expression ([1]; 2.5 μM renewed daily, 48 hours) was “nd (not detectable at >40 cycles by RT-PCR)”, the PDX-1 gene expression ([1]; 2.5 μM renewed daily, 48 hours) was “+++ (detectable at less than 35 cycles by RT-PCR with std error less than 0.9)” and the Sox17 gene expression ([1]; 2.5 μM renewed daily, 48 hours) was “+++ (detectable at less than 35 cycles by RT-PCR with std error less than 0.9)”. The glucagon gene expression ([1]; 2.5 μM renewed daily, 48 hours) was “+ (detectable between 35 and 40 cycles by RT-PCR)”, the HNF-3b gene expression ([1]; 2.5 μM renewed daily, 72 hours) was “+++ (detectable at less than 35 cycles by RT-PCR with std error less than 0.9)” and the Insulin gene expression ([1]; 2.5 μM renewed daily, 72 hours) was “nd (not detectable at >40 cycles by RT-PCR)”. The PDX-1 gene expression ([1]; 2.5 μM renewed daily, 72 hours) was “+ (detectable between 35 and 40 cycles by RT-PCR)”, the Sox17 gene expression ([1]; 2.5 μM renewed daily, 72 hours) was “+++ (detectable at less than 35 cycles by RT-PCR with std error less than 0.9)” and the glucagon gene expression ([1]; 2.5 μM renewed daily, 72 hours) was “nd (not detectable at >40 cycles by RT-PCR)”. The GAPDH gene expression ([2]; 2.5 μM) was “+++ (detectable at less than 35 cycles by RT-PCR with SE less than 0.9)”, the HNF-3 beta gene expression ([2]; 2.5 μM) was “+++ (detectable at less than 35 cycles by RT-PCR with SE less than 0.9)” and the Insulin gene expression ([2]; 2.5 μM) was “nd (not detectable at >40 cycles by RT-PCR)”. The PDX-1 gene expression ([2]; 2.5 μM) was “+ (detectable at greater than 35–40 cycles by RT-PCR)”, the Sox17 gene expression ([2]; 2.5 μM) was “+++ (detectable at less than 35 cycles by RT-PCR with SE less than 0.9)” and the glucagon gene expression ([2]; 2.5 μM) was “+++ (detectable at less than 35 cycles by RT-PCR with SE less than 0.9)”. For the same molecule, the GAPDH gene expression ([2]; 5.0 μM) was “+++ (detectable at less than 35 cycles by RT-PCR with SE less than 0.9)”, the HNF-3 beta gene expression ([2]; 5.0 μM) was “+++ (detectable at less than 35 cycles by RT-PCR with SE less than 0.9)” and the Insulin gene expression ([2]; 5.0 μM) was “nd (not detectable at >40 cycles by RT-PCR)”. The PDX-1 gene expression ([2]; 5.0 μM) was “+ (detectable at greater than 35–40 cycles by RT-PCR)”, the Sox17 gene expression ([2]; 5.0 μM) was “+++ (detectable at less than 35 cycles by RT-PCR with SE less than 0.9)” and the glucagon gene expression ([2]; 5.0 μM) was “+++ (detectable at less than 35 cycles by RT-PCR with SE less than 0.9)”.
